From ChEMBL document CHEMBL5724696, “Autophagy assay results for EUbOPEN Chemogenomics Library” (2024)
Several values for one entry are separate records, joined by “and”; a condition that tells them apart may be missing. Equal entries are not always repeated.

How the values were obtained:
Type in all cases: functional, Homo sapiens
TERT-RPE1 = assay: (§1) Here: values are normalized to the negative (DMSO; defined as 0% autophagy induction) and positive (250nM Torin1; mTOR inhibitor; defined as maximal inducer of autophagy = 100%) control compounds and represented as % of autophagy induction. […] The impact of autophagy induction on cells is complex and depends on the affected target. As such, the magnitude of a phenotype may not be equally mirrored in the %-value of autophagy induction and vice versa. The dynamics of the induction may indicate the mode of activation: e.g. activation via phosphorylation or a signaling cascade may occur fast, while activation via transcription factors may take considerably longer. […] Of note, treatment concentrations may be sub-optimal for specific compounds, leading to false negative annotations.; conditions: Culturing Media DMEM/F12 (1:1), 1 % Penicillin/Streptomycin, 10% Fetal bovin serum Add-On: No, Screening Media Control DMEM/F12 (1:1), Screening Media Samples DMEM/F12 (1:1)
U2OS [1] = assay: as §1; conditions: Culturing Media DMEM, 1 % Penicillin/Streptomycin, 10% Fetal bovin serum Add-On: No, Screening Media Control DMEM, Screening Media Samples DMEM
U2OS [2] = assay: as §1; conditions: Culturing Media DMEM, 1 % Penicillin/Streptomycin, 10% Fetal bovin serum Add-On: No, Screening Media Control DMEM, Screening Media Samples DMEM; remark: listed apart in the source
[3] = Compound Concentration 0.5 uM, Timepoint 12 hours
[4] = Compound Concentration 0.5 uM, Timepoint 24 hours
[5] = Compound Concentration 0.5 uM, Timepoint 36 hours
[6] = Compound Concentration 0.5 uM, Timepoint 60 hours
[7] = Compound Concentration 2 uM, Timepoint 12 hours
[8] = Compound Concentration 2 uM, Timepoint 24 hours
[9] = Compound Concentration 2 uM, Timepoint 36 hours
[10] = Compound Concentration 2 uM, Timepoint 60 hours
[11] = Compound Concentration 10 uM, Timepoint 12 hours
[12] = Compound Concentration 10 uM, Timepoint 24 hours
[13] = Compound Concentration 10 uM, Timepoint 36 hours
[14] = Compound Concentration 10 uM, Timepoint 60 hours

| Structure (SMILES) | autophagy induction (U2OS [1]; [3]) | autophagy induction (U2OS [1]; [4]) | autophagy induction (U2OS [1]; [5]) | autophagy induction (U2OS [1]; [6]) | autophagy induction (U2OS [1]; [7]) | autophagy induction (U2OS [1]; [8]) | autophagy induction (U2OS [1]; [9]) | autophagy induction (U2OS [1]; [10]) | autophagy induction (U2OS [1]; [11]) | autophagy induction (U2OS [1]; [12]) | autophagy induction (U2OS [1]; [13]) | autophagy induction (U2OS [1]; [14]) | autophagy induction (U2OS [2]; [3]) | autophagy induction (U2OS [2]; [4]) | autophagy induction (U2OS [2]; [5]) | autophagy induction (U2OS [2]; [6]) | autophagy induction (U2OS [2]; [7]) | autophagy induction (U2OS [2]; [8]) | autophagy induction (U2OS [2]; [9]) | autophagy induction (U2OS [2]; [10]) | also measured |
| --- | --- | --- | --- | --- | --- | --- | --- | --- | --- | --- | --- | --- | --- | --- | --- | --- | --- | --- | --- | --- | --- |
| CN(C)S(=O)(=O)c1ccc(NC(=S)N2CCC(C(O)(c3ccccc3)c3ccccc3)CC2)cc1 | -3.164% | 1.478% | 0.3125% | 1.161% | -4.133% | -2.924% | -1.588% | -1.351% | -4.693% | -0.2636% | 0.0362% | -2.232% | 4.873% | 8.285% | -1.545% | -6.741% | -9.723% | -10.0932% | -2.641% | -5.443% | autophagy induction (TERT-RPE1; [3]): -8.089%; autophagy induction (TERT-RPE1; [4]): -8.809%; autophagy induction (TERT-RPE1; [5]): -7.846%; autophagy induction (TERT-RPE1; [6]): -8.279%; autophagy induction (TERT-RPE1; [7]): -6.98%; autophagy induction (TERT-RPE1; [8]): -8.186%; autophagy induction (TERT-RPE1; [9]): -8.002%; autophagy induction (TERT-RPE1; [10]): -9.897%; autophagy induction (TERT-RPE1; [11]): -4.6942%; autophagy induction (TERT-RPE1; [12]): -5.029%; autophagy induction (TERT-RPE1; [13]): -1.466%; autophagy induction (TERT-RPE1; [14]): -2.059%; autophagy induction (U2OS [2]; [11]): -2.358%; autophagy induction (U2OS [2]; [12]): -3.276%; autophagy induction (U2OS [2]; [13]): -0.5558%; autophagy induction (U2OS [2]; [14]): -1.95% |
| C[C@@H](NCCc1ccc(O)cc1)[C@@H](O)c1ccc(O)cc1.Cl (relative stereo) | -6.804% | -1.218% | -57.9641% | 0.9422% | -7.529% | -0.8348% | -57.3104% | -0.1418% | -2.903% | -0.1533% | -57.4385% | 1.624% | 14.7038% | 0.5598% | 0.6043% | -0.5871% | 18.1678% | -0.878% | -8.358% | -12.0518% | autophagy induction (TERT-RPE1; Compound Concentration 0.5 uM, Timepoint 12 hours, 12 h, 0.5 µM): 5.631% and 0.2084%; autophagy induction (TERT-RPE1; Compound Concentration 0.5 uM, Timepoint 24 hours, 24 h, 0.5 µM): 6.073% and -4.011%; autophagy induction (TERT-RPE1; Compound Concentration 0.5 uM, Timepoint 36 hours, 36 h, 0.5 µM): 3.7656% and -2.603%; autophagy induction (TERT-RPE1; Compound Concentration 0.5 uM, Timepoint 60 hours, 60 h, 0.5 µM): -3.104% and -1.391%; autophagy induction (TERT-RPE1; Compound Concentration 2 uM, Timepoint 12 hours, 12 h, 2 µM): 5.905% and 3.931%; autophagy induction (TERT-RPE1; Compound Concentration 2 uM, Timepoint 24 hours, 24 h, 2 µM): 4.872% and 1.792%; autophagy induction (TERT-RPE1; Compound Concentration 2 uM, Timepoint 36 hours, 36 h, 2 µM): 4.017% and -0.1457%; autophagy induction (TERT-RPE1; Compound Concentration 2 uM, Timepoint 60 hours, 60 h, 2 µM): -2.448% and 5.167%; autophagy induction (TERT-RPE1; Compound Concentration 10 uM, Timepoint 12 hours, 12 h, 10 µM): -0.5838% and 12.3967%; autophagy induction (TERT-RPE1; Compound Concentration 10 uM, Timepoint 24 hours, 24 h, 10 µM): -3.853% and 16.5093%; autophagy induction (U2OS [2]; [11]): -0.9523%; autophagy induction (U2OS [2]; [12]): -16.8429%; autophagy induction (U2OS [2]; [13]): -21.0427%; autophagy induction (U2OS [2]; [14]): -26.9578% |
